Measured values published in PMC12162873, “Modulating phosphatase DUSP22 with BML-260 ameliorates skeletal muscle wasting via Akt independent JNK-FOXO3a repression” (EMBO Molecular Medicine, 2025).
Values joined by “and” are separate entries in the source; they are usually repeats but may differ in a detail not shown here. Equal values may be shown once. “Also recorded” adds a separate entry of the source. Read-outs that look alike come from different tables or passages of the source.

Assays:
[1] = Pharmacokinetics analysis, TA muscle (LC-MS/MS); type: in vivo, mouse; settings: for concentration at 0.5 h / concentration at 1 h / concentration at 1.5 h / concentration at 2 h / concentration at 6 h: male, C57BL/6J, mouse, tibialis anterior (TA) muscle, intraperitoneal, 5 mg/kg
Protocol: (§1) Assessment of BML-260 pharmacokinetics (PK) was carried out by the company Chaon, Yongin-si, Republic of Korea. BML-260 was administered intraperitoneally at a dose of 5 mg/kg in an injection volume of 10 mL/kg. A total of 21 6-week-old male C57BL/6J mice were divided into two groups as follows: 1) PK (plasma) group (3 mice) and 2) PK (TA muscle) group (18 mice across 6 time points).
For the PK (plasma) group, blood samples were collected at 0.5, 1, 1.5, 2, 6, 12, and 24 h after administration, using orbital sinus collection. Blood was centrifuged to obtain plasma that was then stored at −80 °C. For the PK (TA muscle) group, mice were euthanized at 0.5, 1, 1.5, 2, 6, and 12 h post-administration. The TA muscle was weighed and stored at −80 °C.
(§2) BML-260 levels in plasma and tissue samples were analyzed with liquid chromatography-tandem mass spectrometry (LC-MS/MS) using an Agilent 1200 HPLC system coupled with an AB Sciex 4000 QTrap MS/MS (Agilent Technologies, CA, USA). Quantification limits were determined based on a signal-to-noise ratio greater than 10, with precision below 20% and accuracy between 80% and 120%.

[2] = Pharmacokinetics analysis, plasma (LC-MS/MS); type: in vivo, mouse; set-up: peak plasma concentration after injection: unit not given here; settings: for Plasma Conc. / Plasma Conc., Mean / concentration at 0.25 h / concentration at 0.5 h / concentration at 1.5 h / concentration at 2 h / concentration at 8 h: 5 mg/kg (IP); for concentration at 0.25 h / concentration at 0.5 h / concentration at 1.5 h / concentration at 2 h / concentration at 8 h: intraperitoneal, 5 mg/kg
Protocol: as §1
[…] Blood was centrifuged to obtain plasma that was then stored at −80 °C. For the PK (TA muscle) group, mice were euthanized at 0.5, 1, 1.5, 2, 6, and 12 h post-administration. The TA muscle was weighed and stored at −80 °C.
as §2

C2C12 myotubes = experiment: Western blotting of C2C12 myotubes; type: cell-based, mouse
Protocol: C2C12 murine skeletal muscle myoblasts were purchased from Koram Biotech Corp. (Seoul, Republic of Korea). Prior to experiments, mycoplasma contamination was eliminated using the MycoXpert Mycoplasma Removal Reagent (MYX-B, CAPRICORN) following the manufacturer’s protocol. To ensure complete removal, all cells were passaged three times after treatment before being used in subsequent experiments. No STR profiling was recently undertaken. Myoblasts were cultured in growth media (GM), containing Dulbecco’s modified Eagle’s medium (DMEM), 10% fetal bovine serum, and 1% penicillin and streptomycin (PenStrep). C2C12 myoblasts were differentiated into myotubes at more than 80% confluence by culture in differentiation media (DM), containing DMEM supplemented with 2% horse serum and PenStrep, for 96 h. To induce atrophy, the myotubes were treated with DM plus 10 μM Dex for 24 h. BML-260 and SP600125 were purchased from Santa Cruz Biotechnology, TX, USA (cat. no. sc-223822 and sc-200635).
Western blotting was carried out using the previously published protocol (Lee et al, [2020]). The NIH imaging software Image J 64 was used for densitometry analysis of the gel bands. The primary and secondary antibodies used in this study are shown in the reagent and tools table. Chemiluminescence was used to detect the secondary antibody. […]

DUSP22 = tested on: DUSP22; set-up: method as in Cutshall et al, 2005; settings: ref Cutshall et al, 2005, cited from earlier work
[3] = 5 mg/kg IP, as read by referee #2

Muscle Conc. ([1]; 5 mg/kg (IP), 0.5 h, TA muscle, dilution factor 4, individual animals): 0.350 µg/g and 0.280 µg/g
Muscle Conc. before dilution factor ([1]; 5 mg/kg (IP), 0.5 h, TA muscle, individual animals): 87.62 ng/mL and 70.09 ng/mL
Muscle Conc. ([1]; 5 mg/kg (IP), 1 h, TA muscle, dilution factor 4, individual animals): 0.335 µg/g and 0.367 µg/g
Muscle Conc. before dilution factor ([1]; 5 mg/kg (IP), 1 h, TA muscle, individual animals): 83.78 ng/mL and 91.76 ng/mL
Muscle Conc. ([1]; 5 mg/kg (IP), 1.5 h, TA muscle, dilution factor 4, individual animals): 0.220 µg/g and 0.191 µg/g
Muscle Conc. before dilution factor ([1]; 5 mg/kg (IP), 1.5 h, TA muscle, individual animals): 54.90 ng/mL and 47.79 ng/mL
Muscle Conc. ([1]; 5 mg/kg (IP), 2 h, TA muscle, dilution factor 4, individual animals): 0.165 µg/g and 0.133 µg/g
Muscle Conc. before dilution factor ([1]; 5 mg/kg (IP), 2 h, TA muscle, individual animals): 41.20 ng/mL and 33.33 ng/mL
Muscle Conc. ([1]; 5 mg/kg (IP), 6 h, TA muscle, dilution factor 4, individual animals): 0.013 µg/g and 0.024 µg/g
Muscle Conc. before dilution factor ([1]; 5 mg/kg (IP), 6 h, TA muscle, individual animals): 3.25 ng/mL and 5.89 ng/mL
Muscle Conc. ([1]; 5 mg/kg (IP), 12 h, TA muscle, dilution factor 4, individual animals): BQL
Muscle Conc. before dilution factor ([1]; 5 mg/kg (IP), 12 h, TA muscle, individual animals): 1.21 ng/mL and 0.79 ng/mL and 1.75 ng/mL
Muscle Conc., Mean ([1]; 5 mg/kg (IP), 12 h, TA muscle, n = 3): BQL
delay until peak detection in skeletal muscle (tibialis anterior) ([1]; 5 mg/kg IP): approximately 20 min
peak muscle level [1, 3]: ~ 0.35 ug/g tissue
time of peak muscle level [1, 3]: ~ 1 hour
half maximal inhibitor concentration in muscle ([1]; crude estimate of referee #2 with 1 g tissue = 1 ml): ~ 0.5 uM
concentration at 0.5 h ([1]; 5 mg/kg (IP), 0.5 h, TA muscle, dilution factor 4, individual animals, read-out: Muscle Conc.): 338 ng/g
concentration at 0.5 h ([1]; 5 mg/kg (IP), 0.5 h, TA muscle, individual animals, read-out: Muscle Conc. before dilution factor): 84.6 ng/mL
concentration at 0.5 h ([1]; 5 mg/kg (IP), 0.5 h, TA muscle, n = 3, read-out: Muscle Conc., Mean): 323 ng/g
concentration at 1 h ([1]; 5 mg/kg (IP), 1 h, TA muscle, dilution factor 4, individual animals, read-out: Muscle Conc.): 347 ng/g
concentration at 1 h ([1]; 5 mg/kg (IP), 1 h, TA muscle, individual animals, read-out: Muscle Conc. before dilution factor): 86.7 ng/mL
concentration at 1 h ([1]; 5 mg/kg (IP), 1 h, TA muscle, n = 3, read-out: Muscle Conc., Mean): 350 ng/g
concentration at 1.5 h ([1]; 5 mg/kg (IP), 1.5 h, TA muscle, dilution factor 4, individual animals, read-out: Muscle Conc.): 231 ng/g
concentration at 1.5 h ([1]; 5 mg/kg (IP), 1.5 h, TA muscle, individual animals, read-out: Muscle Conc. before dilution factor): 57.7 ng/mL
concentration at 1.5 h ([1]; 5 mg/kg (IP), 1.5 h, TA muscle, n = 3, read-out: Muscle Conc., Mean): 214 ng/g
concentration at 2 h ([1]; 5 mg/kg (IP), 2 h, TA muscle, dilution factor 4, individual animals, read-out: Muscle Conc.): 166 ng/g
concentration at 2 h ([1]; 5 mg/kg (IP), 2 h, TA muscle, individual animals, read-out: Muscle Conc. before dilution factor): 41.5 ng/mL
concentration at 2 h ([1]; 5 mg/kg (IP), 2 h, TA muscle, n = 3, read-out: Muscle Conc., Mean): 155 ng/g
concentration at 6 h ([1]; 5 mg/kg (IP), 6 h, TA muscle, dilution factor 4, individual animals, read-out: Muscle Conc.): 16 ng/g
concentration at 6 h ([1]; 5 mg/kg (IP), 6 h, TA muscle, individual animals, read-out: Muscle Conc. before dilution factor): 3.9 ng/mL
concentration at 6 h ([1]; 5 mg/kg (IP), 6 h, TA muscle, n = 3, read-out: Muscle Conc., Mean): 17 ng/g
Plasma Conc. ([2]; 0.25 h, individual animals): 15.310 ng/mL and 14.890 ng/mL
Plasma Conc. ([2]; 0.5 h, individual animals): 9.450 ng/mL and 9.888 ng/mL
Plasma Conc. ([2]; 1.5 h, individual animals): 6.230 ng/mL and 6.772 ng/mL
Plasma Conc. ([2]; 2 h, individual animals): 5.288 ng/mL and 4.936 ng/mL
Plasma Conc. ([2]; 8 h, individual animals): 0.232 ng/mL and 0.333 ng/mL
Plasma Conc. ([2]; 12 h, individual animals): BQL
Plasma Conc., Mean ([2]; 12 h, n = 3): BQL
Plasma Conc. ([2]; 24 h, individual animals): BQL
Plasma Conc., Mean ([2]; 24 h, n = 3): BQL
time by which plasma concentration is undetectable [2, 3]: ~ 8 hours
peak plasma concentration after injection ([2]; 5 mg/kg IP, as read by referee #2 from the PK figure): 16
concentration at 0.25 h ([2]; male, C57BL/6J, mouse, plasma, 0.25 h, individual animals, read-out: Plasma Conc.): 18.1 ng/mL
concentration at 0.25 h ([2]; male, C57BL/6J, mouse, plasma, 0.25 h, n = 3, read-out: Plasma Conc., Mean): 16.1 ng/mL
concentration at 0.5 h ([2]; male, C57BL/6J, mouse, plasma, 0.5 h, individual animals, read-out: Plasma Conc.): 11.4 ng/mL
concentration at 0.5 h ([2]; male, C57BL/6J, mouse, plasma, 0.5 h, n = 3, read-out: Plasma Conc., Mean): 10.3 ng/mL
concentration at 1.5 h ([2]; male, C57BL/6J, mouse, plasma, 1.5 h, individual animals, read-out: Plasma Conc.): 6.66 ng/mL
concentration at 1.5 h ([2]; male, C57BL/6J, mouse, plasma, 1.5 h, n = 3, read-out: Plasma Conc., Mean): 6.55 ng/mL
concentration at 2 h ([2]; male, C57BL/6J, mouse, plasma, 2 h, individual animals, read-out: Plasma Conc.): 4.85 ng/mL
concentration at 2 h ([2]; male, C57BL/6J, mouse, plasma, 2 h, n = 3, read-out: Plasma Conc., Mean): 5.03 ng/mL
concentration at 8 h ([2]; male, C57BL/6J, mouse, plasma, 8 h, individual animals, read-out: Plasma Conc.): 0.248 ng/mL
concentration at 8 h ([2]; male, C57BL/6J, mouse, plasma, 8 h, n = 3, read-out: Plasma Conc., Mean): 0.271 ng/mL
half-life ([2]; male, C57BL/6J, mouse, plasma, 5 mg/kg IP, as read by referee #2): ~1 h
SMILES: O=C(O)c1ccc(N2C(=O)C(=Cc3ccccc3)SC2=S)cc1 (stereo in doubt) [BML-260]
skeletal muscle level relative to that needed for enzyme inhibition ([1]; 5 mg/kg IP): may not reach levels where it can function as an enzymatic inhibitor
detection in plasma after IP delivery ([2]; 5 mg/kg IP): detectable in the plasma immediately after intraperitoneal; also recorded: could be detected in the plasma
atrogin-1, MuRF-1 and DUSP22 levels, western blot (C2C12 myotubes; Dex-treated myotubes): reduced
Akt activity (C2C12 myotubes; summary statement of the discussion): not upregulated
IC50 (DUSP22; EGF-R peptide P32-based assay): 18 µM
IC50 for DUSP22 (in words) (DUSP22): low micromolar range
mode of DUSP22 inhibition (DUSP22): competitive inhibitor
